From PubChem BioAssay (NCI)
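Each compound was tested at five concentrations against cells in 96-well plates for 48 hours. GI50 = concentration required for 50% inhibition of growth. Definition used: TGI = concentration required for complete inhibition of growth.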

Experiments:
Test in all cases: inhibition of tumour cell growth, NCI panel, 48 h
[1] = tested on: MDA-MB-231 breast
[2] = tested on: NCI-H522 lung
[3] = tested on: A549 NSCLC
[4] = tested on: SK-OV-3 ovarian
[5] = tested on: RXF 393 renal
[6] = tested on: SK-MEL-28 melanoma
[7] = tested on: BT-549 breast
[8] = tested on: NCI-H226 lung
[9] = tested on: MALME-3M melanoma
[10] = tested on: MOLT-4 leukemia

CC/C(=C(/c1ccc(Cl)cc1)c1ccc(OCCCN(C)C)cc1)c1ccc(OC)cc1
GI50 [1]: 1.3 µM
TGI [1]: 3.29 µM
GI50 [2]: 6.56 µM
TGI [2]: 13.7 µM
GI50 [3]: 3.88 µM
TGI [3]: 10.7 µM
GI50 [4]: 10.2 µM
TGI [4]: 17.5 µM
GI50 [5]: 1.16 µM
TGI [5]: 3.45 µM
GI50 [6]: 1.33 µM
TGI [6]: 3.84 µM
GI50 [7]: 1.13 µM
TGI [7]: 2.89 µM
GI50 [8]: 7.7 µM
TGI [8]: 18.3 µM
GI50 [9]: 1.2 µM
TGI [9]: 2.67 µM
GI50 [10]: 1.05 µM
TGI [10]: 2.53 µM

C=CCOc1ccc2c(c1)CC[C@@H]1[C@@H]2CC[C@]2(C)C(=O)/C(=N/O)C[C@@H]12
GI50 [1]: 1.85 µM
TGI [1]: 5.09 µM
GI50 [2]: 5.59 µM
TGI [2]: 17.4 µM
GI50 [3]: 4.45 µM
TGI [3]: > 48.8 µM
GI50 [4]: 6.97 µM
TGI [4]: 20.3 µM
GI50 [5]: 1.98 µM
TGI [5]: 11.8 µM
GI50 [6]: > 46.5 µM
TGI [6]: > 75.1 µM
GI50 [7]: 2.71 µM
TGI [7]: 19.2 µM
GI50 [8]: 5.06 µM
TGI [8]: 21.7 µM
GI50 [9]: 18 µM
TGI [9]: 44.4 µM
GI50 [10]: 2.44 µM
TGI [10]: 6.92 µM

COc1ccc(-c2nn(C(=O)c3cc(OC)c(OC)c(OC)c3)c3cc(N)ccc23)cc1
GI50 [1]: 0.0133 µM
TGI [1]: 12.9 µM
GI50 [2]: < 0.01 µM
TGI [2]: 1.12 µM
GI50 [3]: < 0.0146 µM
TGI [3]: 3.96 µM
GI50 [4]: 0.0316 µM
TGI [4]: 7.28 µM
GI50 [5]: < 0.01 µM
TGI [5]: 3.98 µM
GI50 [6]: 1.76 µM
TGI [6]: 24.3 µM
GI50 [7]: < 0.0175 µM
TGI [7]: 9.56 µM
GI50 [8]: 0.15 µM
TGI [8]: 6.71 µM
GI50 [9]: 2.03 µM
TGI [9]: 14.8 µM
GI50 [10]: 0.0382 µM
TGI [10]: 23.7 µM

COc1cc(Nc2nccc(-c3cnn4ncccc34)n2)cc(OC)c1
GI50 [1]: 0.0751 µM
TGI [1]: > 11.9 µM
GI50 [2]: 0.079 µM
TGI [2]: 0.619 µM
GI50 [3]: 0.119 µM
TGI [3]: 5.67 µM
GI50 [4]: 0.418 µM
TGI [4]: 9.84 µM
GI50 [5]: 0.0455 µM
TGI [5]: 0.131 µM
GI50 [6]: 0.0726 µM
TGI [6]: 0.38 µM
GI50 [7]: 0.0893 µM
TGI [7]: 2.19 µM
GI50 [8]: 0.0577 µM
TGI [8]: 0.324 µM
GI50 [9]: 0.132 µM
TGI [9]: 1.26 µM
GI50 [10]: 0.0516 µM
TGI [10]: 0.165 µM

CCc1cc(Cc2cc(CC)cc(C(C)(C)C)c2O)c(O)c(C(C)(C)C)c1
GI50 [1]: 1.87 µM
TGI [1]: 3.92 µM
GI50 [2]: 2.38 µM
TGI [2]: 8.29 µM
GI50 [3]: 3.18 µM
TGI [3]: 13.2 µM
GI50 [4]: 3.81 µM
TGI [4]: 13.2 µM
GI50 [5]: 1.81 µM
TGI [5]: 4.98 µM
GI50 [6]: 2.39 µM
TGI [6]: 7.53 µM
GI50 [7]: 2.16 µM
TGI [7]: 7.76 µM
GI50 [8]: 4.88 µM
TGI [8]: 16.1 µM
GI50 [9]: 1.16 µM
TGI [9]: 3.48 µM
GI50 [10]: 3.99 µM
TGI [10]: > 100 µM
